# Results reported in article PMC5601738, “Facile total synthesis of lysicamine and the anticancer activities of the Ru^II, Rh^III, Mn^II and Zn^II complexes of lysicamine” (Oncotarget, 2017).
# Key:
# [1] = tested on: HepG2 cells; experiment: Hoechst33258 assay; settings: HepG2, 24 h; 2 at 3.5, 7.0, […]; 3 at 7.0, 14.0, 28.0 μM
# Experimental: The Hoechst33258 assay is commonly used to measure the changes in cell morphology caused by apoptosis [55]. The HepG2 cells were incubated with 2 (3.5, 7.0, and 14.0 μM) and 3 (7.0, 14.0, and 28.0 μM) for 24 h, respectively, then stained with Hoechst33258 and examined under a fluorescence microscope (Figure 4A).
# Hoechst33258 assay Cell cycle-, apoptotic-associated proteins used
# The morphology characters of apoptosis of HepG2 western blotting analysis
# cells treated with 2 and 3 were carried out by Hoechst Extraction of total protein
# 33258 staining. About 1×10^6 cells were seeded in six-well
# plates, and treated with 2 (3.5, 7.0 and 14.0 μM) and 3 After HepG2 cells incubated with 2 (3.5, 7.0, 14.0
# (7.0, 14.0 and 28.0 μM) for 24 h. The cells were fixed with μM) and 3 (7.0, 14.0, 28.0 μM) for 24 h, cells were
# then stained with Hoechst 33258 for another 10 min in on ice.
# [2] = tested on: apoptosis genes in HepG2 cells; experiment: RT-qPCR array, human apoptosis PCR array (PAHS-012Z); assay type: cell-based; settings: Hep-G2 cells, 14 μM, 24 h, vs control
smiles,measurement,setting,value
"COc1cc2ccnc3c2c(c1OC)-c1ccccc1C3=O.COc1cc2ccnc3c2c(c1OC)-c1ccccc1C3=O.COc1cc2ccnc3c2c(c1OC)-c1ccccc1C3=O.ClC(Cl)Cl.ClC(Cl)Cl.ClC(Cl)Cl.[Mn+2].[O-][Cl+3]([O-])([O-])[O-].[O-][Cl+3]([O-])([O-])[O-] [Complex 3, [Mn(LY)3](ClO4)2·3CHCl3]",Hoechst33258 fluorescence / apoptotic cell morphology,[1],stronger fluorescence in a dose-dependent manner
same,"Fold up/down-regulation, ABL1",[2],1.14
same,"Fold up/down-regulation, ACTB",[2],-3.23
same,"Fold up/down-regulation, AIFM1",[2],1.39
same,"Fold up/down-regulation, AKT1",[2],-1.50
same,"Fold up/down-regulation, APAF1",[2],-1.08
same,"Fold up/down-regulation, B2M",[2],1.32
same,"Fold up/down-regulation, BAD",[2],-1.23
same,"Fold up/down-regulation, BAG1",[2],-3.76
same,"Fold up/down-regulation, BAG3",[2],1.12
same,"Fold up/down-regulation, BAK1",[2],2.10
same,"Fold up/down-regulation, BAX",[2],1.03
same,"Fold up/down-regulation, BCL2",[2],1.08
same,"Fold up/down-regulation, BCL2A1",[2],15.30
same,"Fold up/down-regulation, BCL2L1",[2],-1.97
same,"Fold up/down-regulation, BCL2L2",[2],1.01
same,"Fold up/down-regulation, BCL2L10",[2],1.21
same,"Fold up/down-regulation, BCL2L11",[2],2.71
same,"Fold up/down-regulation, BCL10",[2],1.24
same,"Fold up/down-regulation, BFAR",[2],1.36
same,"Fold up/down-regulation, BID",[2],-1.24
same,"Fold up/down-regulation, BIK",[2],3.02
same,"Fold up/down-regulation, BIRC2",[2],1.65
same,"Fold up/down-regulation, BIRC3",[2],-1.79
same,"Fold up/down-regulation, BIRC5",[2],-1.29
same,"Fold up/down-regulation, BIRC6",[2],1.22
same,"Fold up/down-regulation, BNIP2",[2],1.48
same,"Fold up/down-regulation, BNIP3",[2],1.82
same,"Fold up/down-regulation, BNIP3L",[2],2.06
same,"Fold up/down-regulation, BRAF",[2],1.10
same,"Fold up/down-regulation, CASP1",[2],1.61
same,"Fold up/down-regulation, CASP2",[2],-1.21
same,"Fold up/down-regulation, CASP3",[2],1.46
same,"Fold up/down-regulation, CASP4",[2],1.39
same,"Fold up/down-regulation, CASP5",[2],1.47
same,"Fold up/down-regulation, CASP6",[2],1.46
same,"Fold up/down-regulation, CASP7",[2],1.23
same,"Fold up/down-regulation, CASP8",[2],1.13
same,"Fold up/down-regulation, CASP9",[2],3.47
same,"Fold up/down-regulation, CASP10",[2],-1.45
same,"Fold up/down-regulation, CASP14",[2],8.51
same,"Fold up/down-regulation, CD27",[2],4.42
same,"Fold up/down-regulation, CD40",[2],-1.09
same,"Fold up/down-regulation, CD40LG",[2],1.16
same,"Fold up/down-regulation, CD70",[2],-1.62
same,"Fold up/down-regulation, CFLAR",[2],1.19
same,"Fold up/down-regulation, CIDEA",[2],2.51
same,"Fold up/down-regulation, CIDEB",[2],-1.33
same,"Fold up/down-regulation, CRADD",[2],1.01
same,"Fold up/down-regulation, CYCS",[2],2.27
same,"Fold up/down-regulation, DAPK1",[2],-1.22
same,"Fold up/down-regulation, DFFA",[2],1.10
same,"Fold up/down-regulation, DIABLO",[2],1.68
same,"Fold up/down-regulation, FADD",[2],1.24
same,"Fold up/down-regulation, FAS",[2],-1.45
same,"Fold up/down-regulation, FASLG",[2],1.37
same,"Fold up/down-regulation, GADD45A",[2],3.98
same,"Fold up/down-regulation, GAPDH",[2],-1.17
same,"Fold up/down-regulation, HPRT1",[2],-1.87
same,"Fold up/down-regulation, HRK",[2],49.72
same,"Fold up/down-regulation, IGF1R",[2],-2.51
same,"Fold up/down-regulation, IL10",[2],1.11
same,"Fold up/down-regulation, LTA",[2],-1.40
same,"Fold up/down-regulation, LTBR",[2],-1.24
same,"Fold up/down-regulation, MCL1",[2],2.15
same,"Fold up/down-regulation, NAIP",[2],-1.05
same,"Fold up/down-regulation, NFKB1",[2],-1.85
same,"Fold up/down-regulation, NOD1",[2],-1.30
same,"Fold up/down-regulation, NOL3",[2],-1.07
same,"Fold up/down-regulation, PYCARD",[2],2.80
same,"Fold up/down-regulation, RIPK2",[2],1.45
same,"Fold up/down-regulation, RPLP0",[2],1.17
same,"Fold up/down-regulation, TNF",[2],16.66
same,"Fold up/down-regulation, TNFRSF1A",[2],-1.06
same,"Fold up/down-regulation, TNFRSF1B",[2],-1.05
same,"Fold up/down-regulation, TNFRSF9",[2],110.29
same,"Fold up/down-regulation, TNFRSF10A",[2],-1.02
same,"Fold up/down-regulation, TNFRSF10B",[2],1.11
same,"Fold up/down-regulation, TNFRSF11B",[2],3.22
same,"Fold up/down-regulation, TNFRSF21",[2],3.02
same,"Fold up/down-regulation, TNFRSF25",[2],2.68
same,"Fold up/down-regulation, TNFSF8",[2],3.25
same,"Fold up/down-regulation, TNFSF10",[2],1.70
same,"Fold up/down-regulation, TP53",[2],-1.05
same,"Fold up/down-regulation, TP53BP2",[2],1.53
same,"Fold up/down-regulation, TP73",[2],1.38
same,"Fold up/down-regulation, TRADD",[2],1.11
same,"Fold up/down-regulation, TRAF2",[2],-1.21
same,"Fold up/down-regulation, TRAF3",[2],1.01
